Where two headings read alike, the source gives them in different places.
Tests used:
[1] = molecular target: T1, M1 muscarinic receptor (Homo sapiens, UniProt P11229); experiment: Functional mobilization of intracellular calcium (FLIPR, Fluo-3), M1-CHO cells; type: cell-based; conditions: for Emax: read-out: M1 Efficacy; for M1 Activity: M1-CHO cells, calcium mobilization
T1 construct: expressed in transfected cells; host or cells: CHO cells (M1-CHO, under zeocin and G418 selection)
T1 sequence (P11229 1-460): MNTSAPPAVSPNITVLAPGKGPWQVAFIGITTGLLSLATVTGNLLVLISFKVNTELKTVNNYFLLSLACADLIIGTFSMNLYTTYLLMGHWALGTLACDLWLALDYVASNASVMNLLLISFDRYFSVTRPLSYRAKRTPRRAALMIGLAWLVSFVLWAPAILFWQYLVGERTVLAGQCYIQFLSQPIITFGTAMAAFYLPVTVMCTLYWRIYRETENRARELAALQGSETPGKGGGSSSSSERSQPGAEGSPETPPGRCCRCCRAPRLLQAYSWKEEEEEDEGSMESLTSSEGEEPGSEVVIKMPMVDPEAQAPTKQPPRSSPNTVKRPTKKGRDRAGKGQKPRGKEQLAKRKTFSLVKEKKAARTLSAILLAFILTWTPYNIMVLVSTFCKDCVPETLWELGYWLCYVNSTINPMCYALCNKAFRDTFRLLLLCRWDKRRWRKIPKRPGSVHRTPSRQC
How it was run: (§1)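 CHO lines stably carrying the muscarinic subtype, dye-loaded with Fluo-3 at 37° C for 60-90 min, receive test compound in 0.5% DMSO. Agonist effects are read directly; antagonist effects against carbachol at EC80 after 15 min pre-incubation.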

[2] = molecular target: T2, M4 muscarinic receptor (Homo sapiens, UniProt P08173); experiment: Functional mobilization of intracellular calcium (FLIPR, Fluo-3), M4-CHO cells; type: cell-based; conditions: for Emax: read-out: M4 Efficacy; for M4 Activity: M4-CHO cells, calcium mobilization
T2 construct: expressed in transfected cells; host or cells: CHO cells (M4-CHO, under puromycin, zeocin and blasticidin selection)
T2 sequence (P08173 1-479): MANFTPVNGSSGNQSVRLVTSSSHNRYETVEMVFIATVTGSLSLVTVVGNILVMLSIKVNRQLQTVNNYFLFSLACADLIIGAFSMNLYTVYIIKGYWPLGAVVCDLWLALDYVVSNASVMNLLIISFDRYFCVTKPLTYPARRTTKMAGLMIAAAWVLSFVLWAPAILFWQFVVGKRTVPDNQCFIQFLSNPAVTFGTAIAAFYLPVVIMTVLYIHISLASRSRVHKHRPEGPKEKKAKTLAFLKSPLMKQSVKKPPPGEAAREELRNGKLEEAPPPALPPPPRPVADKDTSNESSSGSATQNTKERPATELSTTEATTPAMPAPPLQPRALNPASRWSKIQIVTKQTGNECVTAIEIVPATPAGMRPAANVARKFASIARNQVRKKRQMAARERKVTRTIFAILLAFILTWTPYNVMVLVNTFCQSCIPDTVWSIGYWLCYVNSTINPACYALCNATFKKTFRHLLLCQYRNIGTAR
How it was run: as §1

[3] = compound nos. 1-454, 100% efficacy is the maximum response obtained with the Carbachol control

Structure (SMILES)	Emax [1, 3] [%]	M1 Activity ([1]; compound nos. 1-454)	Emax [2, 3] [%]	M4 Activity ([2]; compound nos. 1-454)	M1 Efficacy [1, 3]	M4 Efficacy [2, 3]	Emax [1] [%]	Emax [2] [%]
Clc1ccc2c(c1)C1(CCO2)CCN(C2CCCCC2)CC1 [compound 276]	65 to 85	+++ (activity was measured to be less than or equal to 0.7 μM)	55 to 70	+ (activity was measured to be greater than or equal to 4.0 μM)				
CCOC(=O)N1C2CCC1CC(N1CCC3(CC1)c1ccccc1C(=O)C3(C)C)C2 (centres unmarked) [compound 278]	65 to 85	++ (activity was measured to be between 0.7 μM and 3.0 μM)	55 to 70	++ (activity was measured to be between 0.1 μM and 4.0 μM)				
CC(=O)N1CC2(CCN(C3CCN(C(=O)O[C@@H]4CCOC4)CC3)CC2)c2cc(C)ccc21 [compound 279]	< 65	++ (activity was measured to be between 0.7 μM and 3.0 μM)	< 55	++ (activity was measured to be between 0.1 μM and 4.0 μM)				
CC(=O)N[C@H]1CC2(CCN(C3CCC(C)CC3)CC2)c2ccccc21 (some centres unmarked) [compound 280]	65 to 85	+ (activity was measured to be greater than or equal to 3.0 μM)	55 to 70	+ (activity was measured to be greater than or equal to 4.0 μM)				
CCOC(=O)N1CCC(N2CCC3(CC2)CN(C(=O)C2CCCCC2)c2ccc(F)cc23)CC1 [compound 281]	< 65	++ (activity was measured to be between 0.7 μM and 3.0 μM)	55 to 70	++ (activity was measured to be between 0.1 μM and 4.0 μM)				
CCOC(=O)N1CCC(N2CCC3(CC2)CN(C(=O)C(C)(C)C)c2ccc(F)cc23)CC1 [compound 282]	< 65	+++ (activity was measured to be less than or equal to 0.7 μM)	55 to 70	++ (activity was measured to be between 0.1 μM and 4.0 μM)				
CCCOC(=O)N1C2CCC1CC(N1CCC3(CC1)COc1ccc(F)cc13)C2 (centres unmarked) [compound 283]	65 to 85	++ (activity was measured to be between 0.7 μM and 3.0 μM)	55 to 70	+ (activity was measured to be greater than or equal to 4.0 μM)				
COCCOC(=O)N1CCC(N2CCC3(CC2)CN(C(C)=O)c2ccc(F)cc23)CC1 [compound 284]	< 65	++ (activity was measured to be between 0.7 μM and 3.0 μM)	< 55	++ (activity was measured to be between 0.1 μM and 4.0 μM)				
CC(C)OC(=O)N1C2CCC1CC(N1CCC3(CCc4ccccc43)CC1)C2 (centres unmarked) [compound 285]	< 65	++ (activity was measured to be between 0.7 μM and 3.0 μM)	< 55	+ (activity was measured to be greater than or equal to 4.0 μM)				
CCCCOC(=O)N1C2CCC1CC(N1CCC3(CC1)COc1ccc(F)cc13)C2 (centres unmarked) [compound 286]	< 65	++ (activity was measured to be between 0.7 μM and 3.0 μM)	< 55	+ (activity was measured to be greater than or equal to 4.0 μM)				
COC(=O)N1CC2(CCN(C3CC4CCC(C3)N4C(=O)OCC(C)C)CC2)c2cc(F)ccc21 (centres unmarked) [compound 287]	< 65	++ (activity was measured to be between 0.7 μM and 3.0 μM)	< 55	+ (activity was measured to be greater than or equal to 4.0 μM)				
Clc1ccc2c(c1)C1(CCO2)CCN(CC2CCOCC2)CC1 [compound 288]	< 65	+ (activity was measured to be greater than or equal to 3.0 μM)	< 55	+ (activity was measured to be greater than or equal to 4.0 μM)				
CC(C)NC(=O)N1C2CCC1CC(N1CCC3(CC1)COc1ccc(F)cc13)C2 (centres unmarked) [compound 289]	< 65	+++ (activity was measured to be less than or equal to 0.7 μM)	< 55	+ (activity was measured to be greater than or equal to 4.0 μM)				
CCOC(=O)N1CCC(N2CCC3(CC2)CN(C(=O)N2CCOCC2)c2ccc(F)cc23)CC1 [compound 290]	< 65	+++ (activity was measured to be less than or equal to 0.7 μM)	< 55	+ (activity was measured to be greater than or equal to 4.0 μM)				
CC(=O)NC1CC2(CCN(C3CC4CCC3C4)CC2)c2ccccc21 (centres unmarked) [compound 291]	65 to 85	++ (activity was measured to be between 0.7 μM and 3.0 μM)	55 to 70	+ (activity was measured to be greater than or equal to 4.0 μM)				
Cc1ccc2c(c1)C1(CCN(C3CC4CCC3C4)CC1)CN2C(=O)c1ccno1 (centres unmarked) [compound 292]	65 to 85	++ (activity was measured to be between 0.7 μM and 3.0 μM)	55 to 70	+ (activity was measured to be greater than or equal to 4.0 μM)				
COCCOC(=O)N1CCC(N2CCC3(CC2)CN(C(C)=O)c2ccc(C)cc23)CC1 [compound 293]	> 85	++ (activity was measured to be between 0.7 μM and 3.0 μM)	> 70	+++ (activity was measured to be less than or equal to 0.1 μM)				
CCCOC(=O)N1C2CCC1CC(N1CCC3(CC1)CN(S(C)(=O)=O)c1ccc(F)cc13)C2 (centres unmarked) [compound 294]	> 85	++ (activity was measured to be between 0.7 μM and 3.0 μM)	55 to 70	++ (activity was measured to be between 0.1 μM and 4.0 μM)				
CCOC(=O)N1CCC(N2CCC3(CC2)CN(C(C)=O)c2ccc(-c4ccc(C(F)(F)F)cc4)cc23)CC1 [compound 295]	65 to 85	+++ (activity was measured to be less than or equal to 0.7 μM)	55 to 70	+++ (activity was measured to be less than or equal to 0.1 μM)				
CCOC(=O)N1C2CCC1CC(N1CCC3(CC1)CN(C(=O)NC(C)C)c1ccc(F)cc13)C2 (centres unmarked) [compound 296]	65 to 85	+ (activity was measured to be greater than or equal to 3.0 μM)	55 to 70	+ (activity was measured to be greater than or equal to 4.0 μM)				
CCCOC(=O)N1C2CCC1CC(N1CCC3(CC1)CN(C(=O)O[C@@H]1CCOC1)c1ccc(F)cc13)C2 (some centres unmarked) [compound 297]		+ (activity was measured to be greater than or equal to 3.0 μM)		+ (activity was measured to be greater than or equal to 4.0 μM)	++ (efficacy was calculated to be between 85% and 65%)	++ (efficacy was calculated to be between 70% and 55%)		
CCOC(=O)N1C2CCC1CC(N1CCC3(CC1)CN(C(=O)Oc1ccc(F)cc1)c1ccc(F)cc13)C2 (centres unmarked) [compound 298]		+ (activity was measured to be greater than or equal to 3.0 μM)		+ (activity was measured to be greater than or equal to 4.0 μM)			< 65	55 to 70
Fc1ccc2c(c1)C1(CCN(C3CCOCC3)CC1)CN2 [compound 299]	65 to 85	+ (activity was measured to be greater than or equal to 3.0 μM)	55 to 70	+ (activity was measured to be greater than or equal to 4.0 μM)				

Source: patent publication US7858635B2 (priority 2005, dated 2010)
